Results on three compounds are retold here after patent US11124845B2, “PSMA-based molecular-genetic reporter system” (THE JOHNS HOPKINS UNIVERSITY, priority 2014, dated 2021).

Each structure is given as a SMILES string.

The test system of one data set is HSV-sr39tk. The experiment in a line: Dynamic PET in matrigel suspension model, HSV-sr39tk reporter. To be noted: nude mice. Format: in vivo, herpes simplex virus. How it is done:
(§1) Studies were performed according to protocols approved by the Animal Care and Use Committee at Johns Hopkins University. A matrigel suspension model was developed to enable imaging of similar numbers of cells in vivo. Four- to six-week-old athymic male nude mice (Harlan Laboratories Inc., Frederick, Md.) were used for all experiments. 4×10^6 infected cells were injected subcutaneously in the presence of Matrigel (BD Biosciences, Bedford, Mass.) at a 2:1 (cell:matrigel) ratio.
(§2) PET was performed for in vivo reporter comparison. […] [^124I]NaI was kindly provided by Dr. Jason Lewis (Memorial Sloan-Kettering Cancer Center, NY). Athymic nude mice contralaterally implanted with reporter or control expressing matrigel suspensions in the upper flanks were used for imaging. […] Mice were then placed in the prone position on the gantry of a GE eXplore VISTA small animal PET scanner (GE Healthcare Life Sciences, Pittsburgh, Pa.) and injected intravenously with ˜7.4 MBq (200 μCi) in 200 μL of PBS of each respective radiotracer. Images were acquired as a dynamic scan of 18 five-minute frames at 250 to 700 keV for ^18F and 400-700 keV for ^124I. Images were reconstructed using the FORE/2D-OSEM method (1 iteration, 16 subsets) and included correction for radioactive decay, scanner dead time, and scattered radiation. After PET imaging, the mobile mouse holder was placed on the gantry of an X-SPECT (Gamma Medica-Ideas, Salem, N.H.) small animal imaging device to acquire the corresponding CT. PET and CT data were co-registered using AMIDE software (sourceforge.net).
(§3) To compare reporter-probe systems in vivo, a matrigel suspension model was developed (FIG. 2). […] The contralateral cells masses were generally within 30% as measured by GFP imaging in vivo (FIG. 3).
(§4) The next day (48 hours after implantation), animals were subjected to a dynamic PET study whereby ˜7.4 MBq (200 μCi) of each respective radiotracer was administered intravenously and cellular uptake was quantified for a duration of 90 minutes. […]

A further data set deals with T1, hNIS (Homo sapiens, UniProt Q92911).
T1 construct: expressed in transfected cells; host or cells: PC3-CAR cells infected in vitro with Ad-Track-hNIS (pAd-Track-CMV-NIS), implanted in matrigel into nude mice
T1 sequence (Q92911 1-643): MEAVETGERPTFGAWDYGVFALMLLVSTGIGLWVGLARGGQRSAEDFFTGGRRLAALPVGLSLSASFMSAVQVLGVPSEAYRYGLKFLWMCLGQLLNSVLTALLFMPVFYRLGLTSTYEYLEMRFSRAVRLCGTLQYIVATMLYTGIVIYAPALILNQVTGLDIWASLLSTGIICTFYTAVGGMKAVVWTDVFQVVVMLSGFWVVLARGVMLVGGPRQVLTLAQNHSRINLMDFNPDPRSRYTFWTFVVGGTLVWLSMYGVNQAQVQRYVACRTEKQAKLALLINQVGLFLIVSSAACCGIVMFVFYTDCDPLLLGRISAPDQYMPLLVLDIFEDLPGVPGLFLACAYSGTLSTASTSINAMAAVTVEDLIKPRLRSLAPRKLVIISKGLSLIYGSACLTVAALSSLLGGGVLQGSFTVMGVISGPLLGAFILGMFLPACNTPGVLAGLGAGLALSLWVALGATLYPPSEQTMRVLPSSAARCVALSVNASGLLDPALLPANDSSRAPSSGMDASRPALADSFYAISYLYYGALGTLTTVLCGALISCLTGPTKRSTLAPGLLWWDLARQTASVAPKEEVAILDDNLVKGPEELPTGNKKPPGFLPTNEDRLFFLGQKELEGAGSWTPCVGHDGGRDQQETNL
Kind of data set: Dynamic PET in matrigel suspension model, hNIS reporter. Format: in vivo. To be noted: nude mice. The method, then: as §1, §2, §3, §4

Data set [1] concerns MDA-MB-231 cell lines transiently transfected with full-length and truncations of PSMA. The experiment in a line: In vitro radio uptake assay, cells transfected with non-viral PSMA vectors. In kind it is cell-based. To be noted: 24 hours after transfection, 1 μCi. How it is done: The basic expression vectors (FIG. 8A) were tested for the ability to uptake a radio-labeled PSMA-targeted molecule (^125I-YC27). […] Twenty-four hours after the transfection, cells were treated with 1 μCi of ^125I-YC27, washed twice and the uptake was measured.

Where [2] appears, read: PC3-CAR cells in matrigel, PET, SUV ratio.

On to `Nc1nc2c(ncn2CCC(CO)C[18F])c(=O)[nH]1` (stereo not shown) [FHBG, 9-(4-[^18F]Fluoro-3-[hydroxymethyl]butyl)guanine], for which, in the data set with HSV-sr39tk (setting [2]), the “peak target-to-background ratio relative to control cells” value is 2.81±0.27 and the “peak target-to-background ratio relative to muscle” value is on record as 4.99±0.38. The “time after which signal-to-noise ratio greater than two (relative to muscle) could be detected” value in the data set on HSV-sr39tk (dynamic PET) came out at 45 min.

With `[124I-].[Na+]` [[^124I]NaI], on hNIS (setting [2]), the “peak target-to-background ratio relative to control cells” value turned out to be 3.13±0.20 and the “peak target-to-background ratio relative to muscle” value is 4.96±0.65. The “time after which signal-to-noise ratio greater than two (relative to muscle) could be detected” value on hNIS (dynamic PET) turned out to be 20 min.

Consider `O=C(O)CCC(NC(=O)NC(CCCCNC(=O)c1ccc([125I])cc1)C(=O)O)C(=O)O` (stereo not shown) [^125I-YC27, 2-[3-[1-carboxy-5-(4-[^125I]iodo-benzoylamino)-pentyl]-ureido]-pentanedioic acid], for which the “specific uptake of the substrate” value in data set [1] is “Only full-length and N-terminally truncated PSMA were able to specifically uptake the substrate”.
